Measured values reported in US20220402862A1 (Intellia Therapeutics, Inc., priority 2019, published 2022).

How the values were obtained:
Type in all cases: physicochemical
[1] = pKa measurement of unformulated amine lipid (fluorescence, method of Jayaraman et al.); conditions: 100 μM in 0.1 M phosphate buffer, pH 2.0-12.0
Procedure: The pKa of each amine lipid was determined according to the method in Jayaraman, et al. (Angewandte Chemie, 2012) with the following adaptations. […] Lipid was diluted to 100 μM in 0.1 M phosphate buffer (Boston Bioproducts) where the pH ranged from 2.0-12.0. Fluorescence intensity was measured using excitation and emission wavelengths of 321 nm and 448 nm.

[2] = RNA encapsulation efficiency of LNPs (Ribogreen fluorescence assay); conditions: LNP, sg:mRNA 1:1, N/P about 6, amine lipid/DSPC/cholesterol/PEG-2k-DMG 50/9/38/3; Table 2, Experiments 2-20
Procedure: A fluorescence-based assay (Ribogreen®, ThermoFisher Scientific) is used to determine total RNA concentration and free RNA. Encapsulation efficiency is calculated as (Total RNA-Free RNA)/Total RNA. LNP samples are diluted appropriately with 1× TE buffer containing 0.2% Triton-X 100 to determine total RNA or 1× TE buffer to determine free RNA. Standard curves are prepared by utilizing the starting RNA solution used to make the compositions and diluted in 1× TE buffer +/− 0.2% Triton-X 100. Diluted RiboGreen® dye (according to the manufacturer's instructions) is then added to each of the standards and samples and allowed to incubate for approximately 10 minutes at room temperature, in the absence of light. A SpectraMax M5 Microplate Reader (Molecular Devices) is used to read the samples with excitation, auto cutoff and emission wavelengths set to 488 nm, 515 nm, and 525 nm respectively. Total RNA and free RNA are determined from the appropriate standard curves.
Encapsulation efficiency is calculated as (Total RNA-Free RNA)/Total RNA. The same procedure may be used for determining the encapsulation efficiency of a DNA-based cargo component. In a fluorescence-based assay, for single-strand DNA Oligreen Dye may be used, and for double-strand DNA, Picogreen Dye. Alternatively, the total RNA concentration can be determined by a reverse-phase ion-pairing (RP-IP) HPLC method. Triton X-100 is used to disrupt the LNPs, releasing the RNA. The RNA is then separated from the lipid components chromatographically by RP-IP HPLC and quantified against a standard curve using UV absorbance at 260 nm.

[3] = Dynamic light scattering of LNPs: Z-average diameter, number average diameter, PDI; conditions: LNP, sg:mRNA 1:1, N/P about 6, 50/9/38/3; Table 2, Experiments 2-20
Procedure: Dynamic Light Scattering (“DLS”) is used to characterize the polydispersity index (“PDI”) and size of the LNPs of the present disclosure. DLS measures the scattering of light that results from subjecting a sample to a light source. PDI, as determined from DLS measurements, represents the distribution of particle size (around the mean particle size) in a population, with a perfectly uniform population having a PDI of zero.
LNP compositions are analyzed for average particle size, polydispersity index (PDI), total RNA content, encapsulation efficiency of RNA, and zeta potential. LNP compositions may be further characterized by lipid analysis, AF4-MALS, NTA, and/or cryo-EM. Average particle size and polydispersity are measured by dynamic light scattering (DLS) using a Malvern Zetasizer DLS instrument or Wyatt NanoStar. LNP samples were diluted with PBS buffer prior to being measured by DLS. Z-average diameter which is an intensity-based measurement of average particle size is reported along with number average diameter and PDI. A Malvern Zetasizer or Wyatt NanoStar instrument is also used to measure the zeta potential of the LNP. Samples are diluted 1:17 (50 μL into 800 μL) in 0.1× PBS, pH 7.4 prior to measurement.

CCCCCCCCOC(=O)CCCCCCCC(=O)OCC(COC(=O)CCC(OCCCCCCCC)OCCCCCCCC)COC(=O)OCCCN(CC)CC (stereo not shown) [Compound 58, 1-(3-((4,4-bis(octyloxy)butanoyl)oxy)-2-((((3-(diethylamino)propoxy)carbonyl)oxy)methyl)propyl) 9-octyl nonanedioate]
pKa [1]: 6.4 | Encapsulation (%) [2]: 95% | Number mean (nm) [3]: 72.42 nm | PDI [3]: 0.029 | Z-avg (nm) [3]: 89.07 nm

CCCCCCCCOC(CCC(=O)OCC(COC(=O)CCCCCCCCCCC(=O)OCCCCC)COC(=O)OCCCN(CC)CC)OCCCCCCCC (stereo not shown) [Compound 60, 1-(3-((4,4-bis(octyloxy)butanoyl)oxy)-2-((((3-(diethylamino)propoxy)carbonyl)oxy)methyl)propyl) 12-pentyl dodecanedioate]
pKa [1]: 6.38 | Encapsulation (%) [2]: 97% | Number mean (nm) [3]: 84.46 nm | PDI [3]: 0.022 | Z-avg (nm) [3]: 104.2 nm

CCCCC/C=C\C/C=C\CCCCCCCC(=O)OCC(COC(=O)CCCCC(OCCCCCCCC)OCCCCCCCC)COC(=O)OCCCN(CC)CC (stereo not shown) [Compound 62, 3-((6,6-bis(octyloxy)hexanoyl)oxy)-2-((((3-(diethylamino)propoxy)carbonyl)oxy)methyl)propyl (9Z,12Z)-octadeca-9,12-dienoate]
pKa [1]: 6.03 | Encapsulation (%) [2]: 98% | Number mean (nm) [3]: 59.35 nm | PDI [3]: 0.044 | Z-avg (nm) [3]: 73.46 nm

CCCCC/C=C\C/C=C\CCCCCCCC(=O)OCC(COC(=O)CCCC(=O)OC(CCCCCCCC)CCCCCCCC)COC(=O)OCCCN(CC)CC (stereo not shown) [Compound 63, 3-(((3-(diethylamino)propoxy)carbonyl)oxy)-2-((((9Z,12Z)-octadeca-9,12-dienoyl)oxy)methyl)propyl heptadecan-9-yl glutarate]
pKa [1]: 6.09 | Encapsulation (%) [2]: 98% | Number mean (nm) [3]: 64.05 nm | PDI [3]: 0.019 | Z-avg (nm) [3]: 79.37 nm

CCCCC/C=C\C/C=C\CCCCCCCC(=O)OCC(COC(=O)CCCCCC(=O)OC(CCCCCCCC)CCCCCCCC)COC(=O)OCCCN(CC)CC (stereo not shown) [Compound 64, 1-(3-(((3-(diethylamino)propoxy)carbonyl)oxy)-2-((((9Z,12Z)-octadeca-9,12-dienoyl)oxy)methyl)propyl) 7-(heptadecan-9-yl) heptanedioate]
pKa [1]: 6.08 | Encapsulation (%) [2]: 98% | Number mean (nm) [3]: 69.25 nm | PDI [3]: 0.032 | Z-avg (nm) [3]: 85.16 nm

CCCCC/C=C\C/C=C\CCCCCCCC(=O)OCC(COC(=O)OCCCN(CC)CC)COC(=O)C(CCCCCC)CCCCCCCC (stereo not shown) [Compound 65, 3-(((3-(diethylamino)propoxy)carbonyl)oxy)-2-(((2-hexyldecanoyl)oxy)methyl)propyl (9Z,12Z)-octadeca-9,12-dienoate]
pKa [1]: 5.88 | Encapsulation (%) [2]: 98% | Number mean (nm) [3]: 55.76 nm | PDI [3]: 0.034 | Z-avg (nm) [3]: 70.19 nm

CCCCC/C=C\C/C=C\CCCCCCCC(=O)OCC(COC(=O)CC(CCCCCCCC)CCCCCCCC)COC(=O)OCCCN(CC)CC (stereo not shown) [Compound 66, 3-(((3-(diethylamino)propoxy)carbonyl)oxy)-2-(((3-octylundecanoyl)oxy)methyl)propyl (9Z,12Z)-octadeca-9,12-dienoate]
pKa [1]: 6.06 | Encapsulation (%) [2]: 98% | Number mean (nm) [3]: 44.03 nm | PDI [3]: 0.071 | Z-avg (nm) [3]: 58.54 nm

CCCCC/C=C\C/C=C\CCCCCCCC(=O)OCC(COC(=O)CCCC(CCCCCCC)CCCCCCC)COC(=O)OCCCN(CC)CC (stereo not shown) [Compound 67, 3-(((3-(diethylamino)propoxy)carbonyl)oxy)-2-(((5-heptyldodecanoyl)oxy)methyl)propyl (9Z,12Z)-octadeca-9,12-dienoate]
pKa [1]: 6.19 | Encapsulation (%) [2]: 99% | Number mean (nm) [3]: 56.56 nm | PDI [3]: 0.025 | Z-avg (nm) [3]: 69.85 nm

CCCCC/C=C\C/C=C\CCCCCCCC(=O)OCC(COC(=O)CCCCCC(CCCCCC)CCCCCC)COC(=O)OCCCN(CC)CC (stereo not shown) [Compound 68, 3-(((3-(diethylamino)propoxy)carbonyl)oxy)-2-(((7-hexyltridecanoyl)oxy)methyl)propyl (9Z,12Z)-octadeca-9,12-dienoate]
pKa [1]: 6.1 | Encapsulation (%) [2]: 98% | Number mean (nm) [3]: 60.04 nm | PDI [3]: 0.008 | Z-avg (nm) [3]: 72.71 nm

CCCCCC/C=C\COC(=O)CCCCCCCCCC(=O)OCC(COC(=O)CCC(OCCCCCCCC)OCCCCCCCC)COC(=O)OCCCN(CC)CC (stereo not shown) [Compound 69, (Z)-1-(3-((4,4-bis(octyloxy)butanoyl)oxy)-2-((((3-(diethylamino)propoxy)carbonyl)oxy)methyl)propyl) 11-(non-2-en-1-yl) undecanedioate]
pKa [1]: 6.18 | Encapsulation (%) [2]: 98% | Number mean (nm) [3]: 68.12 nm | PDI [3]: 0.026 | Z-avg (nm) [3]: 85.11 nm

CCCCCC/C=C\COC(=O)CCCCCCCCCCCC(=O)OCC(COC(=O)CCC(OCCCCCCCC)OCCCCCCCC)COC(=O)OCCCN(CC)CC (stereo not shown) [Compound 70, (Z)-1-(3-((4,4-bis(octyloxy)butanoyl)oxy)-2-((((3-(diethylamino)propoxy)carbonyl)oxy)methyl)propyl) 13-(non-2-en-1-yl) tridecanedioate]
pKa [1]: 6.02 | Encapsulation (%) [2]: 98% | Number mean (nm) [3]: 66.78 nm | PDI [3]: 0.017 | Z-avg (nm) [3]: 83.47 nm

CCCCC/C=C\C/C=C\CCCCCCCC(=O)OCC(COC(=O)CCC(OCCCCCCCC)OCCCCCCCC)OC(=O)OCCCN(CC)CC (stereo not shown) [Compound 97, 3-((4,4-bis(octyloxy)butanoyl)oxy)-2-(((3-(diethylamino)propoxy)carbonyl)oxy)propyl (9Z,12Z)-octadeca-9,12-dienoate]
pKa [1]: 6.09 | Encapsulation (%) [2]: 98% | Number mean (nm) [3]: 55.14 nm | PDI [3]: 0.037 | Z-avg (nm) [3]: 68.66 nm

CCCCC/C=C\C/C=C\CCCCCCCC(=O)OCC(COCCN(CC)CC)COC(=O)CCC(OCCCCCCCC)OCCCCCCCC (stereo not shown) [Compound 98, 3-((4,4-bis(octyloxy)butanoyl)oxy)-2-((2-(diethylamino)ethoxy)methyl)propyl (9Z,12Z)-octadeca-9,12-dienoate]
pKa [1]: 6.4 | Encapsulation (%) [2]: 99% | Number mean (nm) [3]: 57 nm | PDI [3]: 0.02 | Z-avg (nm) [3]: 70 nm

CCCCC/C=C\C/C=C\CCCCCCCC(=O)OCC(COCCCN(CC)CC)COC(=O)CCC(OCCCCCCCC)OCCCCCCCC (stereo not shown) [Compound 99, 3-((4,4-bis(octyloxy)butanoyl)oxy)-2-((3-(diethylamino)propoxy)methyl)propyl (9Z,12Z)-octadeca-9,12-dienoate]
pKa [1]: 7.1 | Encapsulation (%) [2]: 99% | Number mean (nm) [3]: 74 nm | PDI [3]: 0.003 | Z-avg (nm) [3]: 89 nm
